Values of other authors, collected in patent publication US12274730B2, “Flavonoid compositions and methods of use” (Berkley, LLC, priority 2015, dated 2025).

Conditions: general statement, no test described

O=c1c(O)c(-c2ccc(O)c(O)c2)oc2cc(O)cc(O)c12 [Quercetin, 2-(3,4-dihydroxyphenyl)-3,5,7-trihydroxy-4H-chromen-4-one]
Half-life: 3.5 to 11 h
